This note sets out measurements from US9844535B2, “SHP2 inhibitors and methods of treating autoimmune and/or glomerulonephritis-associated diseases using SHP2 inhibitors” (Indiana University Research and Technology Corporation, priority 2013, dated 2017).

The structures appear in SMILES notation. “Also recorded” adds a separate entry of the source.

The test system of data set [1] is SLE-prone MRL/lpr mice. Briefly: SLE disease progression in MRL/lpr mice (skin, spleen, kidney, thymus, proteinuria, histology, body weight). The data set is classed as in vivo, mouse. As to the method: Briefly, female MRL/MpJ-fas lpr (MRL/lpr), MRL/Mpj and C57BL/6J mice were purchased from the Jackson Laboratory (Bar Harbor, Me.). For experiments, mice within each group were ip injected with either vehicle (DMSO) or the SHP2 inhibitor (7.5 mg/kg/per day). Testing continued for a period of 6 weeks, starting at 11 weeks of age to 17 weeks. Body weight was measured daily and treatment dosage was adjusted accordingly. At the end of the treatment period, mice were sacrificed with CO2 exsanguination and SLE targeted organs were removed. For each mouse, spleen, kidney, and heart weight were calculated. In addition, total animal body weight and tibia length were measured. Peripheral blood/serum was also collected for use in the cytokine assays described below.
Harvested organs (kidney, spleen, and heart) to be used to assess morphometry and histochemistry were flushed with PBS, perfusion fixed in Bouin's reagent, and paraffin embedded. Sections (5 μm) were stained with Hematoxylin and Eosin (H&E), Periodic acid—Schiff stain (PAS), Masson-Trichrome, or reticulin staining at the Harvard Medical School Rodent Histopathology Core and scored using an unbiased approach, in which histology scores of 1 (normal) to 5 (most severe pathology) were designated to tissue sections which were only numerically labeled and in no particular order (by Dr. Roderick Bronson, director of the Rodent Histopathology Core, Harvard Medical School). Numerical sections were later decoded, marked for their designated score, and statistically analyzed. Images of the tissue sections were obtained and quantified on a Keyence BZ-9000 Microscope (Keyence Corporation, Itasca, Ill.).
To determine kidney function, urine was collected before mice were sacrificed. Albumin and creatinine in the urine were measured using colorimetric assays according to the manufacturer's instructions (Albuwell M; The creatinine companion, Exocell), as described below. The kidney function was calculated as ratio of albumin to creatinine levels.
Albumin and creatinine levels: For the albumin assay, collected mouse urine was diluted at 1:5200× and 50 μl was loaded onto an albumin precoated 96-well plate, followed by primary incubation, secondary incubation and colorimetric determination. For the creatinine assay, the urine was diluted 20× and loaded onto a 96-well plate, and picrate working solution and acid reagent were added sequentially according to protocol. Absorbance was assayed using a plate reader set at a wavelength of 495 nm.
To determine whether inhibition of SHP2 activity affected SLE disease progression, each of the SLE target tissues (i.e., skin, kidney, spleen) was tested in both treated and untreated SLE-prone mice. Particularly, tissues were tested as: WT treated with inhibitor, WT treated with DMSO (vehicle), MRL/mpJ treated with inhibitor, MRL/mpf treated with DMSO (vehicle), MRL/lpr treated with inhibitor, and MRL/lpr treated with DMSO (vehicle).

In data set [2] the test system is T cells isolated from the spleen of SLE-prone mice. Briefly: Proliferation and viability of cultured mouse T cells. The data set is classed as cell-based. As to the method:
Whole tissue cell cultures prepared from mouse spleen and axillary lymph nodes were generated as described above. From within this total cell preparation, total T cells from spleen and the double negative T cells from axillary lymph nodes were further purified through negative selection using a pan T cell isolation kit from Milenyi Biotec (San Diego, Calif.). […] Next, 20 μl of anti-biotin beads were added per 1×10^7 cells and the reaction was kept on ice for another 30 minutes. After centrifuging at 2000 rpm for 5 minutes at 4° C., the pellet was resuspended in 2 ml of T cell isolation buffer (D-PBS, pH7.2, 0.5% FBS and 2 mM EDTA) and the T cells were purified through a magnetic sorting column (MACS).
The purity of isolated T cells routinely exceeded 94%. After purification, T cells were resuspended in RPMI1640 medium with 10% FBS and 1×10^5 cells/well in 100 ul total volume was loaded onto a 96-well plate, either left uncoated or precoated with anti-CD3 antibody (1 ug/ml) (OKT3; Biolegend). All cells loaded onto wells precoated with anti-CD3 antibody were also mixed with anti-CD28 antibody (0.5 μg/ml) (CD28.2; BioLegend) to help potentiate the T cell signaling response. Plated cells were cultured for 48 hours in either the presence of vehicle (DMSO) or Shp2 inhibitor (10 μg/ml). Following the incubation, 15 μl of medium was collected for various cytokine activity analyses.
For cell viability, an MTT (thiazolyl Blue tetrazolium Bromide, M2128, Sigma, St. Louis, Mo.) assay was employed. Briefly, 10 μl of the MTT labeling reagent (final concentration 0.5 mg/ml) was loaded into each cell culture well (96-well plate) and then incubated for 4 hours in a humidified chamber. Following incubation, 100 μl of solubilization solution (0.04N in absolute isopropanol) was added to each well, resuspended, and then incubated at 37° C. for an additional hour. Spectrophotometric absorbance of the samples was assessed using a microplate reader at a wavelength of 595 nm. T cell numbers/proliferation was assessed by cell count using a hemocytometer. In brief, 1×10^5 cells were plated in wells and cultured for 48 hours. 10 μl of cell suspension was then removed and mixed together with 10 μl of trypan blue solution (0.4%, T8154, Sigma). After mixing, 10 μl of the mixture was loaded onto the hemocytometer and the total average number of cells/well was calculated.
Moreover, the proliferative effects observed were specific to the double-negative T cell population (FIG. 20A).

[3] abbreviates: MRL/lpr mice, treatment for 6 weeks.

`Cn1c(-c2cccc(NC(=O)C(=O)Nc3ccc(-c4ccsc4)cc3)c2)c(I)c2cc(C(=O)O)c(O)cc21` [11a-1]: the “cytotoxic effects during the treatment period” value in data set [1] (7.5 mg/kg/day) was “no obvious cytotoxic effects”. Besides, in data set [1] (MRL/lpr mice), the “SLE-related disease phenotype in the kidney (histology: glomerulonephritis, fibrosis, immune cell infiltration)” value is “prevented the development of this SLE-related disease phenotype in the kidney” and the “unbiased histopathological scoring of kidney” value is listed as “quantifiably prevented the development of SLE-related disease phenotype”. For the same molecule, in data set [1] (setting [3]), the kidney size result was “normalized the kidney to a size”; the “splenomegaly (spleen size and weight)” value was “reduced splenomegaly”. The “PAS staining of kidney tissue” value in data set [1] (SLE kidneys) was “decreased inflammatory infiltration in the tissue, smaller glomeruli, decreased fibrosis, and decreased numbers of mesangial cells surrounding the glomerulus”. Also, the proteinuria result in data set [1] (SLE mice vs vehicle-treated) is recorded as “significant reduction in proteinuria”. Further, in data set [1] (SLE-prone mice), the thymus size entry is reported as “decreased thymus size”. For the same molecule, the skin lesions/inflammation entry in data set [1] (SLE-prone mice, 7.5 mg/kg/day) is on record as “reduced the skin lesions/inflammation”. The “body weight during treatment period” value in data set [1] (mice, 7.5 mg/kg/day ip) is recorded as “no change in body weight”. For the same molecule, the “total number / proliferation of double-negative T cells” value in data set [2] (MRL/lpr, CD3 activation, 48 hours culture, listed as SHP2 inhibitor) was “decreased the total number of double-negative T cells; also recorded: decreases proliferation”. For the same molecule, the “viability of tissue-cultured double-negative T cells” value in data set [2] (MTT, absence or presence of CD3 ab, listed as SHP2 inhibitor) was “did not affect viability; also recorded: does not affect viability”. Besides, in data set [2] (MTT, absence or presence of CD3 antibody), the “total T cell viability” value is on record as “no effect on total T cell viability”. Further, the “inactive and CD3 activated T cell proliferation” value in data set [2] (SLE mouse splenic T cells, 48 hours culture) was “significantly inhibited”. Besides, in data set [2] (presence or absence of stimulation), the “effects in WT or MRL/MpJ control cells” value was “No effects were observed”.
